Experimental findings from patent publication US20240270737A1, “SMALL MOLECULAR INHIBITORS OF STING SIGNALING COMPOSITIONS AND METHODS OF USE” (STINGINN INC., priority 2021, published 2024) are described below.

Where only a bound is given, the exact number is not on record here.

For assay [1], the system named is IRF3 translocation induced by dsDNA (ISD). Put plainly: IRF3 translocation inhibition, confocal/immunofluorescence after ISD transfection. To be noted: Homo sapiens, % means blockage of IRF3 translocation induced by dsDNA (ISD). Type of assay: cell-based. The protocol: Inhibition of IFNβ expression was measured by Luciferase induction at 24 hours after transfection of ISD. […]. […] FIG. 3H qPCR of IFNβ 1 performed in MEFs treated same as in FIG. 3A. FIG. 3I qPCR of CCL5 performed in MEFs treated same as in FIG. 3A.
Immunofluorescence Microscopy: Cells were cultured and treated in their appropriate media on Lab-Tek II chamber slides. Cell were fixed with 4% paraformaldehyde for 15 minutes in at 37° C. and permeabilized with 0.05% Triton X-100 for 5 minutes at room temperature. Immunostaining was performed with rabbit-anti-STING polyclonal, rabbit-anti-IRF3 (Santa Cruz Biotechnology) or rabbit-anti-p65 (Cell Signaling) followed by fluorescence conjugated secondary antibodies (FITC-goat-anti-rabbit) (Invitrogen).

The subject of the next assay is pIRF3, pSTING. The assay can be described thus: Western blot of pIRF3, pSTING, pTBK1 after ISD transfection in hTERT cells. Type of assay: cell-based, human. To be noted: Homo sapiens. As to the method: FIG. 1C are photographs showing Western blot analysis of STING, phospho-TBK1 (pTBK1) and phospho-IRF3 (pIRF3) performed at 6 hours after ISD transfection with/without W1 treatment same as FIG. 1A, Mock is shown (210), ISD treatment only (220) was used as a control, according to an embodiment of the invention;
Immunoblot analysis: Equal amounts of proteins were resolved on sodium dodecyl sulfate (SDS)-Polyacrylamide gels and then transferred to polyvinylidene fluoride (PVDF) membranes (Millipore). After blocking with 5% Blocking Reagent, membranes were incubated with various primary antibodies (and appropriate secondary antibodies). The image was resolved using an enhanced chemiluminescence system ECL (Thermo Scientific) and detected by autoradiography (Kodak). Antibodies: rabbit polyclonal antibody against STING was developed in our laboratory as described previously in Ishikawa et al, 2008; other antibodies were obtained from following sources: β-actin (Sigma Aldrich), p-IRF3 (Cell Signaling), IRF3 (Santa Cruz Biotechnology), p-p65 (Cell Signaling), p65 (Cell Signaling), p-TBK1 (Cell Signaling), TBK1 (Abcam), cGAS (Cell Signaling).
On the technique in general: In western blotting, separated proteins are transferred to a membrane and probed.

Assay [2] concerns IFNβ expression (type I IFNβ promoter driving luciferase). Put plainly: IFNβ promoter luciferase assay in hTERT-pIFNβ-Glu cells transfected with ISD. Type of assay: cell-based, human. To be noted: Homo sapiens. The protocol:
Inhibition of IFNβ expression was measured by Luciferase induction at 24 hours after transfection of ISD, DMSO is shown (230), ISD treatment only (220) was used as a control, according to an embodiment of the invention;
Inhibition of IFNβ expression was measured by Luciferase induction at 24 hours after transfection of ISD, Mock is shown (210), ISD treatment only (220) was used as a control, according to an embodiment of the invention;
Identification of small molecule inhibitors of STING. In the presence of cytosolic DNA species, STING becomes activated to drive the transcription of cytokines such as type I IFN. Compounds binding to STING via TSA were subsequently examined for their ability to prevent cytosolic DNA species from activating the type I interferon (IFN) promoter, using a live cell assay. This assay comprised immortalized human fibroblasts (hTERT) that were stably transfected with the type I IFN promoter driving luciferase as well as the CMV promoter driving SEAP (hTERT-pIFNβ-Glu). The live cell assay has previously been disclosed in PCT/US2019/025380 entitled IFN-Beta Reporter System for Immortalized Primary Cells inventor Glen N. Barber, which was filed Apr. 2, 2018 and published as WO2019195285, and which is herein incorporated by reference in its entirety and for all purposes. The ability of the small molecules to prevent activation of the type I IFN promoter and the transcription of luciferase, but not SEAP in response to cytosolic DNA species was assessed. The activation of STING, typically by CDNs, in turn activates the transcription factors NF-κB and IRF3, both of which are required to induce the transcriptional stimulation of the Type I IFN promoter, but not the CMV promoter as IRF3 and NF-kB transcription factor binding sites are not contained in the CMV promoter. The assay identified the small molecule Compound W1 in the first screen (HTS), where the level of luciferase was not able to activate the type I IFN promoter or induce the expression of luciferase (see Table I and Table II).
Inhibition of IFNβ expression was measured by Luciferase induction at 24 hours after transfection of ISD. ISD only treatment was used as control.
Inhibition of IFNβ expression was measured by Luciferase induction at 24 hours after transfection of ISD, Mock is shown (210), ISD treatment only (220) was used as a control.
Luciferase assay: hTERT-BJ1 Telomerase Fibroblasts stably expressing the luciferase gene under the control of the interferon-beta promoter and SEAP gene under control of the CMV promoter) (hTERT-pIFNβ-Glu) were generated by the Barber laboratory. Luciferase assay was performed using Secrete-Pair Dual Luminescence Assay Kit from GeneCopoeia following the manufacturer's protocol.

With `COc1ccc(-c2nc(CN3CCN(c4cc(C)nc(N(C)C)n4)CC3)cs2)cc1OC` [Compound W3, 4-(4-{[2-(3,4-dimethoxyphenyl)-1,3-thiazol-4-yl]methyl}piperazin-1-yl)-N,N,6-trimethylpyrimidin-2-amine], the inhibition (as a rule, the drop in the measured response relative to a control, in per cent) at 25 µM in assay [1] fell in the range of 40 to 50%. Moreover, in the assay on pIRF3, pSTING, the inhibition at 10 µM lay in the range of 40 to 50%. Besides, the inhibition at 5 µM in assay [2] is -37%.
For the compound `COc1ccc(-c2nc(CN3CCN(c4nc(C)nc(N(C)C)n4)CC3)cs2)cc1OC` [Compound W4, 4-(4-{[2-(3,4-dimethoxyphenyl)-1,3-thiazol-4-yl]methyl}piperazin-1-yl)-N,N,6-trimethyl-1,3,5-triazin-2-amine], the inhibition at 10 µM in the assay with pIRF3, pSTING is less than 10%. The inhibition at 5 µM in assay [2] stood at 4%.
Consider `COc1ccc(-c2nc(CN3CCN(c4nc(C)cc(C(C)C)n4)CC3)cs2)cc1OC` [Compound W5, 2-(4-{[2-(3,4-dimethoxyphenyl)-1,3-thiazol-4-yl]methyl}piperazin-1-yl)-4-methyl-6-(propan-2-yl)pyrimidine], for which the inhibition at 10 µM in the assay with pIRF3, pSTING is less than 10%. For the same compound, the inhibition at 5 µM in assay [2] worked out at 18%.
For the compound `Cc1cc(N2CCN(Cc3csc(-c4ccc(C(F)(F)F)cc4)n3)CC2)nc(N(C)C)n1` [Compound W11, N,N,4-trimethyl-6-[4-({2-[4-(trifluoromethyl)phenyl]-1,3-thiazol-4-yl}methyl)piperazin-1-yl]pyrimidin-2-amine], the inhibition at 25 µM in assay [1] was in the range of 90 to 100%. The inhibition at 10 µM with pIRF3, pSTING is 90 to 100%. The inhibition at 5 µM in assay [2] turned out to be 38%.
In the case of `COc1ccc(-c2nc(CN3CCN(c4cc(C)nc(N(C)C)n4)CC3)cs2)c(OC)c1` [Compound W13, 4-(4-{[2-(2,4-dimethoxyphenyl)-1,3-thiazol-4-yl]methyl}piperazin-1-yl)-N,N,6-trimethylpyrimidin-2-amine], in assay [1], the inhibition at 25 µM is 40 to 50%. Further, the inhibition at 10 µM in the assay with pIRF3, pSTING lay within 90 to 100%. Also, the inhibition at 5 µM in assay [2] amounted to 30%.
For `Cc1cc(N2CCN(Cc3csc(-c4ccc(Cl)cc4)n3)CC2)nc(N(C)C)n1` [Compound W14, 4-(4-{[2-(4-chlorophenyl)-1,3-thiazol-4-yl]methyl}piperazin-1-yl)-N,N,6-trimethylpyrimidin-2-amine], the inhibition at 25 µM in assay [1] was approximately 70%. Further, the inhibition at 10 µM in the assay on pIRF3, pSTING lay in the range of 90 to 100%. For the same compound, the inhibition at 5 µM in assay [2] came to 42%.
Taken in the same sequence, the figures for `CCc1ccc(-c2nc(CN3CCN(c4cc(C)nc(N(C)C)n4)CC3)cs2)cc1` [Compound W15] were 90 to 100%, 90 to 100% and 69%.
Take `Cc1cc(N2CCN(Cc3cnc(-c4ccccc4)s3)CC2)nc(N(C)C)n1` [Compound W19, N,N,4-trimethyl-6-{4-[(2-phenyl-1,3-thiazol-5-yl)methyl]piperazin-1-yl}pyrimidin-2-amine]: the inhibition at 10 µM in the assay with pIRF3, pSTING is less than 10%. In addition, the inhibition at 5 µM in assay [2] came to 76%.
Regarding `Cc1cc(N2CCN(Cc3ncc(-c4ccccc4)s3)CC2)nc(N(C)C)n1` [Compound W20, N,N,4-trimethyl-6-{4-[(5-phenyl-1,3-thiazol-2-yl)methyl]piperazin-1-yl}pyrimidin-2-amine], the inhibition at 25 µM in assay [1] lay within 40 to 50%. In addition, the inhibition at 10 µM with pIRF3, pSTING was less than 10%. Moreover, in assay [2], the inhibition at 5 µM came out at 79%.
